# Laboratory results from patent US8426437B2, “Pyrroloquinoline derivatives and their use as protein kinases inhibitors” (Pierre Fabre Medicament, priority 2005, dated 2013).
# What was measured:
# CAPAN2 = experiment: WST test, inhibition of proliferation of CAPAN2; assay type: cell-based; details: Homo sapiens, Capan-2, 96 h; line CAPAN2, tissue of origin Pancreas; four days of incubation, WST-1
# Procedure: (§1) The inhibition of the proliferation of cell lines by certain compounds of the invention was tested. […] In the example, the lines used were derived from cancers of the uterus, central nervous system, colon, stomach, head and neck, lung, breast, pancreas, and kidney, as well as from lymphoma, myeloma, pleura, or from melanoma.
# (§2) The WST test for measuring cell proliferation and viability (Roche Applied Science) is based on cleavage of a tetrazolium salt by the mitochondrial dehydrogenases in viable cells.
# (§3) After four days of incubation of the compounds with the cell line, 14 μl of WST-1 reagent is added to each well and the plates are incubated for four hours at 37° in humid atmosphere at 5% CO2. The level of formazan formed is then determined by spectrophotometry at 450 nm whereas a reference is measured at 650 nm. A control with untreated cells is represented by six wells per plate and the group of treated cells is produced in triplicate for each of the concentrations measured.
# (§4) The compounds are tested at five concentrations between 10 nM and 100 μM and two cytotoxic agents are used as controls: adriamycin and 5-fluorouracil.
# A498 = experiment: WST test, inhibition of proliferation of A498; assay type: cell-based; details: Homo sapiens, 96 h; line A498, tissue of origin Kidney; four days of incubation, WST-1
# Procedure: as §1, §2, §3, §4
# MDA-231 = experiment: WST test, inhibition of proliferation of MDA-231; assay type: cell-based; details: Homo sapiens, MDA-MB-231, 96 h; line MDA-231, tissue of origin Breast; four days of incubation, WST-1
# Procedure: as §1, §2, §3, §4
# MDA-468 = experiment: WST test, inhibition of proliferation of MDA-468; assay type: cell-based; details: 96 h; line MDA-468, tissue of origin Breast; four days of incubation, WST-1
# Procedure: as §1, §2, §3, §4
# 1752L = experiment: WST test, inhibition of proliferation of 1752L; assay type: cell-based; details: 96 h; line 1752L, tissue of origin Pleuromesothelium; four days of incubation, WST-1
# Procedure: as §1, §2, §3, §4
# RAJI = experiment: WST test, inhibition of proliferation of RAJI; assay type: cell-based; details: Homo sapiens, 96 h; line RAJI, tissue of origin Lymphoma; four days of incubation, WST-1
# Procedure: as §1, §2, §3, §4
# FGFR1 (h) = molecular target: T1, FGFR1 (h) (Homo sapiens, UniProt P11362); experiment: Upstate kinase panel: FGFR1; assay type: biochemical; details: compound 1 μM, ATP (200), read-out: % inhibition at 1 μMol
# T1 construct: purchased Upstate
# T1 sequence (P11362 22-822): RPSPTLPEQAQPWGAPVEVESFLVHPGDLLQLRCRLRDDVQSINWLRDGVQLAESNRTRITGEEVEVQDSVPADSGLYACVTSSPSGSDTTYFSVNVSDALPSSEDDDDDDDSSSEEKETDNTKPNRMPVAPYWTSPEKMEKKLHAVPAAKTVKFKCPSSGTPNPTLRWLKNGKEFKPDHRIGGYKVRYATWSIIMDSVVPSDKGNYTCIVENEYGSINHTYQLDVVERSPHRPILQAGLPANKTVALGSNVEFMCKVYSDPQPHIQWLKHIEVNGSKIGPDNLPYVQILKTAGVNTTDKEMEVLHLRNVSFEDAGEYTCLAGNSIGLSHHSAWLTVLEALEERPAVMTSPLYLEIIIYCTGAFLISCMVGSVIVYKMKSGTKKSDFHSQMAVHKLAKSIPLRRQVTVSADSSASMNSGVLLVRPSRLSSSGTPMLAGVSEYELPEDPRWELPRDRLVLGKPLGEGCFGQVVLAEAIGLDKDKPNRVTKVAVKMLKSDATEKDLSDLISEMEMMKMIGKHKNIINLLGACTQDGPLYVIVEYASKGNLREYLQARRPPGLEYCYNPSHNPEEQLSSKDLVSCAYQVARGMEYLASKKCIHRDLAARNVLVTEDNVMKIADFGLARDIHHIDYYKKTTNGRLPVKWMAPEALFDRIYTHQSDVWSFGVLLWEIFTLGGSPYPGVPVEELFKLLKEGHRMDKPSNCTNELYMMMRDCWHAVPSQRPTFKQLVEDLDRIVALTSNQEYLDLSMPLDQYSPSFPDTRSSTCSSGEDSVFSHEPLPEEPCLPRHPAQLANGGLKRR
# Procedure: (§5) These kinases are produced by Upstate and screened according to the respective protocols indicated by the supplier (http://www.upstate.com/features/kp_protocols.asp). Examples 1, 12, 166 and 238 were tested at a concentration of 20 μM, 10 μM, 1 μM and 1 μM respectively in the presence of 10 μM of ATP for examples 1 and 12 and at the concentrations of ATP shown in parentheses for examples 166 and 238. The results shown in Table VII correspond to percentage inhibition of the kinase tested in the presence of the compound, relative to a control effected without the compound.
# U251 = experiment: WST test, inhibition of proliferation of U251; assay type: cell-based; details: Homo sapiens, U-251, 96 h; line U251, tissue of origin CMS; four days of incubation, WST-1
# Procedure: as §1, §2, §3, §4
# A427 = experiment: WST test, inhibition of proliferation of A427; assay type: cell-based; details: Homo sapiens, A-427, 96 h; line A427, tissue of origin Lung (NSCLC); four days of incubation, WST-1
# Procedure: as §1, §2, §3, §4
# 536L = experiment: WST test, inhibition of proliferation of 536L; assay type: cell-based; details: 96 h; line 536L, tissue of origin Head/neck; four days of incubation, WST-1
# Procedure: as §1, §2, §3, §4
# Rsk2 (h) = molecular target: T2, Rsk2 (h) (Homo sapiens, UniProt P51812); experiment: Upstate kinase panel: Rsk2; assay type: biochemical; details: compound 1 μM, ATP (10), read-out: % inhibition at 1 μMol
# T2 construct: purchased Upstate
# T2 sequence (P51812 whole entry): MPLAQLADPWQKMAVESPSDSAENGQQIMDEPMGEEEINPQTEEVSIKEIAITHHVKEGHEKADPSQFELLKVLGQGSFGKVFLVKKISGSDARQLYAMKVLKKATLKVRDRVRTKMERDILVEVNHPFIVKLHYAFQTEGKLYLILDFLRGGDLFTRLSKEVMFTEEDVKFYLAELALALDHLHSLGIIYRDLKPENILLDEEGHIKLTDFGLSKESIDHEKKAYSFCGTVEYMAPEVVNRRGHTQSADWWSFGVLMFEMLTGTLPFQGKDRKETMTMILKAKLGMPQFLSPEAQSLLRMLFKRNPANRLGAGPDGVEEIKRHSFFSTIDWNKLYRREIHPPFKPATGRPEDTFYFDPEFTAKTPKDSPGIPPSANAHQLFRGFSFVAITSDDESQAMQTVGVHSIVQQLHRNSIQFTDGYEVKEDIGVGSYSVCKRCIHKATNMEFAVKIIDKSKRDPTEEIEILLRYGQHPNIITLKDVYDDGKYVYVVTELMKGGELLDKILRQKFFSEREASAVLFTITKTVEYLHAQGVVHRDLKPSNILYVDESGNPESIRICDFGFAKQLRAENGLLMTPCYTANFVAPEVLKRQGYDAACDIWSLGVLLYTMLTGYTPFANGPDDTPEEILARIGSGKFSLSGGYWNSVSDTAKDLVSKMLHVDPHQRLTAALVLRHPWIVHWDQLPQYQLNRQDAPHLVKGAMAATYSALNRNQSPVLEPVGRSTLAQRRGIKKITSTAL
# Procedure: as §5
# panel of cell lines = experiment: Inhibition of the proliferation of a panel of cell lines (WST test); assay type: cell-based; details: lines of Table XI, four days of incubation
# SKUT1B = experiment: WST test, inhibition of proliferation of SKUT1B; assay type: cell-based; details: Homo sapiens, 96 h; line SKUT1B, tissue of origin Uterus; four days of incubation, WST-1
# Procedure: as §1, §2, §3, §4
# MLCK (h) = experiment: Upstate kinase panel: MLCK; assay type: biochemical, human; details: compound 1 μM, ATP (10)
# Procedure: as §5
# A172 = experiment: WST test, inhibition of proliferation of A172; assay type: cell-based; details: Homo sapiens, A 172, 96 h; line A172, tissue of origin CMS; four days of incubation, WST-1
# Procedure: as §1, §2, §3, §4
# RET (h) = molecular target: T3, RET (h) (Homo sapiens, UniProt P07949); experiment: Upstate kinase panel: RET; assay type: biochemical; details: compound 20 μM, 10 μM ATP, read-out: % inhibition at 20 μMol
# T3 construct: purchased Upstate
# T3 sequence (P07949 29-1114): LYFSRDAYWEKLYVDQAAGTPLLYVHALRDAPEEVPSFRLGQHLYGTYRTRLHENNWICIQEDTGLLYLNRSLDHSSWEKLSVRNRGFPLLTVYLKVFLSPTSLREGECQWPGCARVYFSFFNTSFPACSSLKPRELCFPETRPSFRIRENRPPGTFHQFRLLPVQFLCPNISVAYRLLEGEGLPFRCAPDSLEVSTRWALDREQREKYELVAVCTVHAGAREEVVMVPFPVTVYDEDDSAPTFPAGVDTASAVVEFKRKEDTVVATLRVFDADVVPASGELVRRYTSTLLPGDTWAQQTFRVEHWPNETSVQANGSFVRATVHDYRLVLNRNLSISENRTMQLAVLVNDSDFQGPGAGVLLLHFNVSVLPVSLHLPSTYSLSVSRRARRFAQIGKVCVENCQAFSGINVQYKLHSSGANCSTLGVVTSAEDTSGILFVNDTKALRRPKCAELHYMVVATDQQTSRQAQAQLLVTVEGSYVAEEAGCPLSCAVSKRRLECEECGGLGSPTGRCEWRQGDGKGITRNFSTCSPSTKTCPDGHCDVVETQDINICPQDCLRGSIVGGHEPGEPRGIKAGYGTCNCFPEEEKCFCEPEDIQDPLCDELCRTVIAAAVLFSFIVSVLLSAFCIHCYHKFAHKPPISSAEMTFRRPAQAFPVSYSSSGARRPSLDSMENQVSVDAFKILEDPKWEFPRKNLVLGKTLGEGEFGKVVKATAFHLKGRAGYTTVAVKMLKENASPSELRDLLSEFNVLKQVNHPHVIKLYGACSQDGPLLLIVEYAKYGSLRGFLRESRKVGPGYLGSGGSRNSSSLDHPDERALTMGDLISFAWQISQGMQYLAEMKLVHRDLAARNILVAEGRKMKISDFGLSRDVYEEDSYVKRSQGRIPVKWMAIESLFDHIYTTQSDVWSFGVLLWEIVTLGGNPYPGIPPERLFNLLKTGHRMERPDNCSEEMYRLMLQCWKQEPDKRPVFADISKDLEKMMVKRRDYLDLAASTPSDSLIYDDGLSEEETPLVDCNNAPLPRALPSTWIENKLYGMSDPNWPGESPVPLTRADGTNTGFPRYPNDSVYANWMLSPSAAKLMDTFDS
# Procedure: as §5
# ALK = ALK (Homo sapiens, UniProt Q9UM73); experiment: Inhibition of kinase ALK (PLCγ1-GST substrate, anti-phosphotyrosine ELISA); assay type: biochemical; details: ALK 180 ng/ml, 250 μM ATP, 30 minutes at 30° C.
# Chain of ALK (Q9UM73 19-1620, species assumed): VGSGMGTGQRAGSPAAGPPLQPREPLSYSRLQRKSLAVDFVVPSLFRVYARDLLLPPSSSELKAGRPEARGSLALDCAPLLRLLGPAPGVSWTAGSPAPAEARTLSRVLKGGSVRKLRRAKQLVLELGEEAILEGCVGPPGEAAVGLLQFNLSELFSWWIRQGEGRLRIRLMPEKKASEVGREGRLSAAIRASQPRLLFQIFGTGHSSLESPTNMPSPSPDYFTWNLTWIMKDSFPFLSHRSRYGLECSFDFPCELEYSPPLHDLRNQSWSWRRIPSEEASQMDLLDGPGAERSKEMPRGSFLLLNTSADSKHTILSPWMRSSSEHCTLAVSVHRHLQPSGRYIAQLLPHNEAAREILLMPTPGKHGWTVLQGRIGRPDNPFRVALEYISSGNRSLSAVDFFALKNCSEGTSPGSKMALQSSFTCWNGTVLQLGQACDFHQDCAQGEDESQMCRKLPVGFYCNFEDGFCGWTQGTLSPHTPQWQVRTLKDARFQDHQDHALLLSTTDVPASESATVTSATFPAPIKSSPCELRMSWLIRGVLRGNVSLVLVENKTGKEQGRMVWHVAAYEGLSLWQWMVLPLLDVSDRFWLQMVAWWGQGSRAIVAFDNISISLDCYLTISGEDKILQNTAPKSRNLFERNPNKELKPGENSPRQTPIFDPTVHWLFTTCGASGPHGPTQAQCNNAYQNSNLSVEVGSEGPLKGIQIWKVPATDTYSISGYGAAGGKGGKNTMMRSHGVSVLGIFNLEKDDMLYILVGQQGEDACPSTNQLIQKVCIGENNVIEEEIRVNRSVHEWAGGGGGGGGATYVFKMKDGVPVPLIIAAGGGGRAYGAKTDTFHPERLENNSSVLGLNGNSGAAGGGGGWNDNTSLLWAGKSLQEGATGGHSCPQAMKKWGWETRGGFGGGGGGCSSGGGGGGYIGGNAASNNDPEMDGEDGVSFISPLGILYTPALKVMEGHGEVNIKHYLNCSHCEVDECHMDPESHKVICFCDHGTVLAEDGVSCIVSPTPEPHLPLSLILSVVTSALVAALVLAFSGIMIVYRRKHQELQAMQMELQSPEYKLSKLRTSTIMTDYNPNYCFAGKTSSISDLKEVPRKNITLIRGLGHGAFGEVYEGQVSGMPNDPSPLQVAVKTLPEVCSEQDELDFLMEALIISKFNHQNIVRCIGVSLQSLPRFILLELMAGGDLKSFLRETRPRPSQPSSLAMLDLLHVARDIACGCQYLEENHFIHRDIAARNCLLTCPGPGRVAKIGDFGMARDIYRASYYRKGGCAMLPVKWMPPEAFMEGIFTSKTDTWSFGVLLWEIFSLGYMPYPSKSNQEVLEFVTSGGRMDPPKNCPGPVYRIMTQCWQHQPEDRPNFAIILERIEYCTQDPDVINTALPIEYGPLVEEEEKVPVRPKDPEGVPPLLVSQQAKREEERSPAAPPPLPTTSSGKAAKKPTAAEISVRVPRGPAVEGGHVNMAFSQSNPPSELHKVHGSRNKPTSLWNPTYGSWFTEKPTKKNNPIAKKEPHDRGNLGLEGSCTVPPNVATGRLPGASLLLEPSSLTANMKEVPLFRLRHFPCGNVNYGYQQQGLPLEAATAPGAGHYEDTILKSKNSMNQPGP
# Procedure: Incubation is carried out for 30 minutes at 30° C. with agitation.
# The signal is read in luminescent mode using a luminometer.
# Hck (h) = molecular target: T4, Hck (h) (Homo sapiens, UniProt P08631); experiment: Upstate kinase panel: Hck; assay type: biochemical; details: compound 10 μM, 10 μM ATP, read-out: % inhibition at 10 μMol
# T4 construct: purchased Upstate
# T4 sequence (P08631 whole entry): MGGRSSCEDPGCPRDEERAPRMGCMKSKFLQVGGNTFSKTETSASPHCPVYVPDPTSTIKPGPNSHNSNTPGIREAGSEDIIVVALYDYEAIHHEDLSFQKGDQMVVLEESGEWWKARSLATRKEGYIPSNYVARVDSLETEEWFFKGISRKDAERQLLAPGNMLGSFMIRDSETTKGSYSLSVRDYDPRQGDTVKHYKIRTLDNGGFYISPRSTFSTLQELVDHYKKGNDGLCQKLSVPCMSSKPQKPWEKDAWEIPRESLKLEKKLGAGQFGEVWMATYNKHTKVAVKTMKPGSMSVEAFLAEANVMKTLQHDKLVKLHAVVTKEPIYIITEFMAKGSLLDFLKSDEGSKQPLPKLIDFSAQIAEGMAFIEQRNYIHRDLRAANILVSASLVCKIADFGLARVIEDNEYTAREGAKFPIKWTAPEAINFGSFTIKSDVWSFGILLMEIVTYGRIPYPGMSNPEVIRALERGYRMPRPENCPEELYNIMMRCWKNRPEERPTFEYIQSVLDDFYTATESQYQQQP
# Procedure: as §5
structure (smiles),measurement,setting,value
"CCOC(=O)c1c[nH]c2c(=O)[nH]c3ccc(-c4cccc(S(C)(=O)=O)c4)cc3c12 [Compound 238, 8-(3-Methanesulfonyl-phenyl)-4-oxo-4,5-dihydro-3H-pyrrolo[2,3-c]quinoline-1-ethyl carboxylate]",IC50,CAPAN2,47 µM
same,IC50,A498,49 µM
same,IC50,MDA-231,41 µM
same,IC50,MDA-468,38 µM
same,IC50,1752L,35 µM
same,IC50,RAJI,34 µM
same,inhibition at 1 µM,FGFR1 (h),51%
same,IC50,U251,33 µM
same,IC50,A427,36 µM
same,IC50,536L,36 µM
same,inhibition at 1 µM,Rsk2 (h),25%
same,inhibition of proliferation of cell lines (in words),panel of cell lines,inhibition of proliferation
same,IC50,SKUT1B,33 µM
same,% inhibition at 1 μMol,MLCK (h),21%
same,IC50,A172,13 µM
"CCOC(=O)c1c[nH]c2c(=O)[nH]c3ccccc3c12 [Compound 1, 4-Oxo-4,5-dihydro-3H-pyrrolo[2,3-c]quinoline-1-ethyl carboxylate]",inhibition at 20 µM,RET (h),99%
"CCOC(=O)c1c[nH]c2c(=O)[nH]c3ccc(S(=O)(=O)Nc4ccc(F)cc4)cc3c12 [Compound 12, 8-(4-Fluorophenylsulfamoyl)-4-oxo-4,5-dihydro-3H-pyrrolo[2,3-c]quinoline-1-ethyl carboxylate]",IC50,ALK,0.1 to 1 µM
same,inhibition at 10 µM,Hck (h),91%
